Data set [1] can be described thus: Stabilization of Kathon 39 FG / bromo-2-nitropropane-1,3-diol basic preparation: appearance and pH on storage. How it is done:
A basic preparation which contained 88.34% of purified water, 6.00% of bromo-2-nitropropane-1,3-diol and 5.66% of Kathon 39 FG was made. […] Kathon 39 FG is a mixture of CMI and MI prepared with solvent and a low salt and water content (available from Rohm & Haas Company). Thereafter, 100 g of the basic preparation were brought to a pH of 5.16 with triethanolamine (preparation A) and with imidazole to a pH of 5.32 (preparation B). Preparation C was prepared with the addition of 0.1% of pyrion disulphide to 100 g of the basic preparation. The basic preparation D (without addition) acted as reference. The appearance of a freshly made preparation and the appearance as affected by increasing storage times were examined. In addition, the pH of all preparations was tested after 35 days.

The procedure of data set [2]:
Moreover, it is preferred that the reaction is carried out over a period of 5 minutes to 4 hours, preferably up to 120 minutes and in particular up to 60 minutes. Suitable reaction temperatures are in the range of from 0 to 80° C., preferably 10 to 40° C. and in particular 20 to 30° C. If appropriate, the stabilizer solution obtained after the reaction can be filtered in order to remove troublesome solid components.

Where two headings read alike, the source gives them in different places.

For the compound `c1c[nH]cn1` [imidazole], the “stabilization of aqueous CMI/MI-based preparation containing 6.00% of bromo-2-nitropropane-1,3-diol” value in data set [1] (additive to the basic preparation, versus basic preparation D) is recorded as “stabilizing effect on the composition, albeit to a lesser extent”.

Regarding `[O-][n+]1ccccc1SSc1cccc[n+]1[O-]` [pyrion disulphide, 2,2′-dithiobis(pyridine N-oxide)], in data set [1], the “stabilization of aqueous CMI/MI-based preparation containing 6.00% of bromo-2-nitropropane-1,3-diol” value is listed as “improved”. The same compound had a solubility in water in data set [2] of 0.9 % by weight.
